Here are results for one compound from US20190038624A1 (priority 2017, published 2019).

Molecules are shown by their SMILES. Like-named read-outs stand apart in the source and are kept apart here.

The test system of the assay is patients with probable MSA. It is filed as in vivo, human. To be noted: average of five patients, oral 200 mg daily. The procedure: Five patients fulfilled the consensus criteria for “probable MSA” and received oral Nilotinib 200 mg daily for 24 weeks. Disease progression was monitored every 4 weeks by measuring the patient's motor and non-motor symptoms with the Unified Multiple System Atrophy Rating Scale (UMSARS). Mini Mental State Examination (MMSE) was used to screen for cognitive impairment. […] However, these AEs resolved with continued administration of the drug. […] Furthermore, there was a significant decline of 6.8 and 2.2 points in the UMSARS and UMSARS-II, respectively, compared to baseline (see FIG. 2). MMSE results were normal throughout treatment.

For the compound `Cc1cn(-c2cc(NC(=O)c3ccc(C)c(Nc4nccc(-c5cccnc5)n4)c3)cc(C(F)(F)F)c2)cn1` [Nilotinib], the “UMSARS, Average” value is, setting by setting: (Week 4) 52.6 points; (Week 8) 52.4 points; (Week 12) 50.8 points; (Week 16) 49.4 points; (Week 20) 47.8 points; (Week 24) 46.6 points. The “UMSARS-II, Average” value worked out at 22.2 points (Week 4); 22.2 points (Week 8); 22 points (Week 12); 21.6 points (Week 16); 21.2 points (Week 20); 20.6 points (Week 24).
